This is an account of results in ChEMBL document CHEMBL1201862, “PubChem BioAssay data set” (2004).

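Compound exposure: 48 hours, 5 concentrations, 96-well plates. GI50 marks 50% less growth.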 The source made the active and inactive calls. Rule as the data show it: active = GI50 up to about 1.1 µM and inactive = higher.

Some test systems named below: ACHN; CAKI-1; COLO 205; HCT-15; IGROV-1; KM12; LOX IMVI; NCI-H460; OVCAR-5; OVCAR-8; PC-3; SF-268; SNB-75; SW-620; T47D; TK-10; U-251; UACC-257; HOP-62.
Experiment in all cases: NCI-60 cell line screen, 48 h

As to `CC(=O)O[C@H]1CC[C@H]2[C@@H]3CCc4cc(O)c(I)cc4[C@H]3CC[C@]12C`, the GI50 in the assay with ACHN was 14.9 µM (inactive); in the assay with CAKI-1 it was 16.1 µM (inactive); with COLO 205 it was 18.1 µM (inactive); in the assay on HCT-15, 10.5 µM; in the assay on IGROV-1 it was 16.9 µM (inactive); in the assay with KM12, 12 µM (inactive). Further, the GI50 in the assay on LOX IMVI is 15.1 µM (inactive); with NCI-H460, 12.9 µM (inactive); in the assay with OVCAR-5 it was 18.2 µM (inactive); in the assay on OVCAR-8, 18.3 µM (inactive); in the assay with PC-3, 6.12 µM (inactive); in the assay with SF-268, 13.8 µM (inactive). The GI50 with SNB-75 was 13.4 µM (inactive); in the assay with SW-620 it was 13 µM (inactive); in the assay with T47D it was 14.7 µM (inactive); with TK-10, 19.3 µM (inactive); in the assay with U-251, 14.7 µM (inactive); with UACC-257 it was 16.4 µM (inactive).
Regarding `CN1C(=O)C(C(N)=O)C2CC1(C)Oc1ccccc12` (stereo not drawn), the GI50 was > 100 µM (inactive) in the assay with ACHN; > 100 µM (inactive) with CAKI-1; > 100 µM (inactive) with COLO 205; above 100 µM with HCT-15; > 100 µM (inactive) in the assay with HOP-62; > 100 µM (inactive) in the assay on IGROV-1. For the same compound, the GI50 in the assay with KM12, with LOX IMVI, in the assay with NCI-H460, in the assay on OVCAR-5, in the assay on OVCAR-8 and with PC-3 was > 100 µM (inactive) throughout. The GI50 with SF-268, in the assay on SNB-75, in the assay on SW-620, in the assay with T47D, with U-251 and in the assay on UACC-257 was > 100 µM (inactive) each time.
In the case of `COc1ccc(CC2c3cc(OC)c(OC)c(OC)c3CC[N+]2(C)C)cc1Oc1ccc(CC2c3cc4c(c(OC)c3CCN2C)OCO4)cc1` (stereo not drawn), the GI50 in the assay with ACHN was > 100 µM (inactive); in the assay with CAKI-1, > 100 µM (inactive); in the assay with COLO 205 it was > 100 µM (inactive); in the assay on HCT-15, above 100 µM; in the assay with IGROV-1, > 100 µM (inactive); with KM12, > 100 µM (inactive). For the same compound, the GI50 is > 100 µM (inactive) in the assay on LOX IMVI; 92 µM (inactive) in the assay on NCI-H460; > 100 µM (inactive) with OVCAR-5; > 100 µM (inactive) in the assay on OVCAR-8; > 100 µM (inactive) in the assay with PC-3; > 100 µM (inactive) with SF-268. Also, the GI50 in the assay on SNB-75, with SW-620, in the assay with T47D, in the assay with TK-10, in the assay on U-251 and in the assay with UACC-257 was > 100 µM (inactive) each time.
With `C=C(CCOC)CCC1CCCCC(=C)C1=O` (stereo not drawn), the GI50 in the assay on ACHN was > 100 µM (inactive); with CAKI-1, > 100 µM (inactive); with COLO 205, > 100 µM (inactive); in the assay with HCT-15, above 100 µM; with HOP-62, > 100 µM (inactive); in the assay on IGROV-1 it was > 100 µM (inactive). The GI50 is 63.1 µM (inactive) with KM12; > 100 µM (inactive) in the assay with LOX IMVI; > 100 µM (inactive) in the assay on NCI-H460; > 100 µM (inactive) in the assay with OVCAR-5; > 100 µM (inactive) in the assay on OVCAR-8; > 100 µM (inactive) in the assay with PC-3. For the same compound, the GI50 in the assay with SF-268, in the assay with SNB-75, in the assay on SW-620, in the assay on T47D and with U-251 was > 100 µM (inactive) throughout.
`CNC(=O)N(CCC#N)CCCN(C(=O)NC)c1ccccc1`: the GI50 is > 100 µM (inactive) in the assay with ACHN; > 100 µM (inactive) in the assay on CAKI-1; > 100 µM (inactive) with COLO 205; above 100 µM with HCT-15; > 100 µM (inactive) with HOP-62; > 100 µM (inactive) with IGROV-1. Also, the GI50 in the assay on KM12, in the assay on LOX IMVI, with NCI-H460, with OVCAR-5, with OVCAR-8 and in the assay with PC-3 was > 100 µM (inactive) each time. In addition, the GI50 is 72.6 µM (inactive) in the assay with SNB-75; > 100 µM (inactive) with SW-620; > 100 µM (inactive) in the assay on T47D; > 100 µM (inactive) with TK-10; > 100 µM (inactive) in the assay with U-251; > 100 µM (inactive) in the assay on UACC-257.
With `O=NN1C(c2ccccc2)CC(=NO)CC1c1ccccc1` (stereo not drawn), the GI50 was > 100 µM (inactive) in the assay with ACHN; 68.4 µM (inactive) in the assay on CAKI-1; > 100 µM (inactive) with COLO 205; above 100 µM in the assay with HCT-15; > 100 µM (inactive) in the assay on HOP-62; > 100 µM (inactive) in the assay with IGROV-1. For the same compound, the GI50 is > 100 µM (inactive) with KM12; > 100 µM (inactive) with LOX IMVI; > 100 µM (inactive) with NCI-H460; > 100 µM (inactive) in the assay on OVCAR-8; 70.3 µM (inactive) in the assay on PC-3; > 100 µM (inactive) with SF-268. The GI50 was 88.5 µM (inactive) in the assay with SNB-75; > 100 µM (inactive) with SW-620; > 100 µM (inactive) in the assay with T47D; > 100 µM (inactive) in the assay with TK-10; > 100 µM (inactive) with U-251; > 100 µM (inactive) in the assay on UACC-257.
In the case of `NC1c2c(Cl)sc(Cl)c2C(=O)C1O` (stereo not drawn), the GI50 is 27.5 µM (inactive) in the assay on ACHN; 24.4 µM (inactive) in the assay with CAKI-1; 18.2 µM (inactive) in the assay with COLO 205; 16.5 µM in the assay on HCT-15; 57.9 µM (inactive) in the assay with IGROV-1; > 100 µM (inactive) with KM12. The GI50 in the assay with LOX IMVI is 23.4 µM (inactive); with NCI-H460, 46 µM (inactive); in the assay with OVCAR-5 it was > 100 µM (inactive); in the assay with OVCAR-8, 25.9 µM (inactive); with PC-3 it was > 100 µM (inactive); in the assay on SF-268, 43.1 µM (inactive). Besides, the GI50 in the assay on SNB-75 is 33.6 µM (inactive); in the assay with SW-620, 17.4 µM (inactive); in the assay with T47D it was > 100 µM (inactive); with TK-10, > 100 µM (inactive); with U-251 it was 21.2 µM (inactive); with UACC-257, 43.4 µM (inactive).
Turning to `CC1OC(=O)C(C(C)C)NC(=O)C(C(C)C)OC(=O)C(C(C)C)NC(=O)C(C)OC(=O)C(C(C)C)NC(=O)C(C(C)C)OC(=O)C(C(C)C)NC(=O)C(C)OC(=O)C(C(C)C)NC(=O)C(C(C)C)OC(=O)C(C(C)C)NC1=O` (stereo not drawn), the GI50 is < 0.0001 µM (active) in the assay with ACHN; 0.00288 µM (active) in the assay with CAKI-1; 0.0025 µM (active) in the assay with COLO 205; 0.0034 µM with HCT-15; 0.0025 µM (active) in the assay on HOP-62; 0.00275 µM (active) with IGROV-1. Moreover, the GI50 in the assay on KM12 is 0.00272 µM (active); with LOX IMVI, 0.00538 µM (active); in the assay on NCI-H460, 0.00279 µM (active); with OVCAR-8, 0.0025 µM (active); in the assay with PC-3, < 0.0001 µM (active); in the assay with SF-268 it was 0.00314 µM (active). The GI50 with SNB-75 is 0.00301 µM (active); in the assay on SW-620, 0.0025 µM (active); in the assay with T47D, < 0.0001 µM (active); in the assay on TK-10 it was < 0.0001 µM (active); with U-251 it was 0.0025 µM (active); with UACC-257, 0.0025 µM (active).
